Columns and labels:
[1] = 101.33 kPa, Liquid; for speed of sound: Sing-around technique in a fixed-path interferometer; for mass density: Vibrating tube method
[2] = refractive index (Na D-line) (dimensionless); settings: 101.33 kPa, Liquid, Standard Abbe refractometry

CC(C)OC(=O)C[NH3+].CCCCCCCCCCCCOS(=O)(=O)[O-] [2-isopropoxy-2-oxoethan-1-aminium dodecyl sulfate]
Settings	mass density, [1] [kg/m3]	refractive index, [2]	speed of sound, [1] [m/s]
303.15 K	1025.14	1.463	1373.4
308.15 K	1021.37	1.4603	1355.1
313.15 K	1017.68	1.4576	1337.6
318.15 K	1014.16	1.4549	1320.9
323.15 K	1010.65	1.4529	1305
328.15 K	1007.14	1.4497	1289.6
333.15 K	1003.63	1.4465	1274.6
338.15 K	1000.12	1.4441	1259.9
343.15 K	996.58	1.4414	1245.8

CC(C)COC(=O)[C@H](C)[NH3+].CCCCCCCCCCCCOS(=O)(=O)[O-] [(S)-1-isobutoxy-1-oxopropan-2-aminium dodecyl sulfate]
Settings	mass density, [1] [kg/m3]	refractive index, [2]	speed of sound, [1] [m/s]
288.15 K	1049.18	1.456	1447.6
293.15 K	1045.48	1.454	1423.6
298.15 K	1041.75	1.452	1401.9
303.15 K	1038.02	1.45	1381.6
308.15 K	1034.13	1.4479	1362.5
313.15 K	1030.13	1.4458	1343.9
318.15 K	1026.31	1.4437	1325.8
323.15 K	1022.6	1.4418	1308.1
328.15 K	1019.08	1.4397	1291.2
333.15 K	1015.6	1.4377	1275.8
338.15 K	1012.14	1.4354	1261
343.15 K	1008.75	1.4336	1246.6

CC(C)OC(=O)[C@@H]1CCC[NH2+]1.CCCCCCCCCCCCOS(=O)(=O)[O-] [(S)-2-(isopropoxycarbonyl)pyrrolidin-1-ium dodecyl sulfate]
Settings	mass density, [1] [kg/m3]	refractive index, [2]	speed of sound, [1] [m/s]
288.15 K	1054.33	1.4575	1455.5
293.15 K	1050.45	1.4559	1436.8
298.15 K	1046.8	1.4542	1419.2
303.15 K	1043.15	1.4525	1402.4
308.15 K	1039.52	1.451	1386.3
313.15 K	1035.89	1.4492	1370.7
318.15 K	1032.27	1.4478	1355.5
323.15 K	1028.73	1.4461	1340.6
328.15 K	1025.22	1.4446	1326
333.15 K	1021.7	1.4432	1311.7
338.15 K	1018.2	1.4414	1297.6
343.15 K	1014.69	1.4398	1284

CC(C)COC(=O)[C@@H](N)C(C)C.CCCCCCCCCCCCOS(=O)(=O)O [isobutyl L-valinate dodecyl sulfate]
Settings	refractive index, [2]	speed of sound, [1] [m/s]
288.15 K	1.4568	1434.4
293.15 K	1.4555	1421.3
298.15 K	1.4538	1408.6
303.15 K	1.4519	1394.6
308.15 K	1.4505	1379.9
313.15 K	1.4488	1365.5
318.15 K	1.4471	1350.9
323.15 K	1.4455	1335.5
328.15 K	1.4438	1318.1
333.15 K	1.4422	1299.9
338.15 K	1.4406	1275
343.15 K	1.439	1249.5

CC(C)COC(=O)C[NH3+].CCCCCCCCCCCCOS(=O)(=O)[O-] [2-isobutoxy-2-oxoethan-1-aminium dodecyl sulfate]
Settings	mass density, [1] [kg/m3]	refractive index, [2]	speed of sound, [1] [m/s]
303.15 K	1013.62	1.4624	1372.1
308.15 K	1009.88	1.4592	1355.2
313.15 K	1006.14	1.456	1339
318.15 K	1002.38	1.4527	1323
323.15 K	998.71	1.4494	1307.6
328.15 K	995.15	1.4462	1292.5
333.15 K	991.89	1.443	1277.6
338.15 K	988.22	1.4397	1263
343.15 K	984.53	1.4365	1248.7
